Reference: patent publication US20140024700A1, “BLOOD-BORNE MIRNAS AS SURROGATE MARKERS OF DRUG EFFICACY FOR CARDIAC CONDITIONS” (miRagen Therapeutics, Inc., priority 2010, published 2014)
Entries after “also recorded” stand apart in the source; their conditions may differ.

Key:
Dahl salt-sensitive rats = test: Dahl salt-sensitive rat model, 4% NaCl diet: body weight, echocardiography, histology (Example 1); format: in vivo; details: 4% NaCl HS diet
Procedure: To obtain additional insight into the basis for the protective effects seen in response to antimiR-208a, subsequent studies were done using a 4.0% NaCl diet, during which the rats received saline, 5 or 25 mg/kg of antimiR-208a, or 25 mg/kg of antimiR control every 2 weeks.
The LNA-antimiR oligonucleotides were synthesized at miRagen Therapeutics, Inc. as unconjugated and fully phosphorothiolated oligonucleotides perfectly complementary to the 5′ region of the mature miR-208a sequence. The LNA control oligonucleotide consisted of a sequence directed against a C. elegans specific miRNA. Unless otherwise indicated, in vivo delivery of the oligonucleotide chemistries was achieved by low pressure intravenous (i.v.) injections via the tail vein or subcutaneous injections of either adult male C56B16 mice or adult male Dahl Salt-sensitive rats (Harlan, Indianapolis). […] Tissue samples were collected at the indicated timepoints for molecular or histological examination. Dahl rats were maintained on 0.25 NaCl or placed on 4% or 8% NaCl diet at 8 weeks of age (Harlan, Indianapolis).

miR-208a = test: Real-time PCR of miR-208a in cardiac tissue, 4% NaCl diet (Example 1); format: in vivo, rat; details: 4% NaCl HS diet, 2 weeks after last injection, 5 or 25 mg/kg antimiR, control 25 mg/kg
Procedure: This regulation of miR-499 and miR-208b was confirmed by Northern blot analysis (FIG. 2B).
For in vivo real-time PCR analysis, RNA was extracted from cardiac tissue using Trizol (Invitrogen) after which two μg RNA from each tissue sample was used to generate cDNA using Super Script II reverse transcriptase per manufacturer's specifications (Invitrogen). To detect the level of miR-208 RT-PCR was performed using the Taqman MicroRNA assay (Applied Biosystems, ABI) according the manufacturer's recommendations, using 10-100 ng of total RNA. The expression of a subset of genes was analyzed by quantitative real time PCR using Taqman probes purchased from ABI.

[1] = 8 weeks, histological quantification, listed as antimiR-208a
[2] = 8 weeks after HS diet, vs HS/saline, listed as antimiR-208a

Substance: M-10101: antimiR targeting bases 2 to 17 of mature miR-208a, LNA and DNA linked by phosphorothioate bonds; 5′-CTTTTTGCTCGTCTTA-3′ (SEQ ID NO: 12) (all phosphorothioate, sugars by position and methylation of C not given here; LNA/DNA mixmer; listed as Homo sapiens)
- Cardiomyocyte hypertrophy (cardiomyocyte size) (Dahl salt-sensitive rats; [1]): significant reduction in cardiomyocyte hypertrophy; also recorded: significantly less hypertrophy
- Periarteriolar (perivascular) fibrosis, Picrosirius Red staining (Dahl salt-sensitive rats; [1]): reduced periarteriolar fibrosis; also recorded: significantly less hypertrophy and fibrosis
- Body weight gain (Dahl salt-sensitive rats; 5 or 25 mg/kg every 2 weeks, listed as antimiR-208a): maintained their increase in weight gain; also recorded: sufficient to maintain weight gain comparable to that in animals on a normal diet
- Isovolumic relaxation time (IVRT), echocardiography (Dahl salt-sensitive rats; [2]): significant dose-dependent reduction; also recorded: significantly improved
- Mitral valve early to active filling velocity ratio (MV E/A) (Dahl salt-sensitive rats; [2]): normalization; also recorded: significantly improved
- Isovolumic relaxation time, time-dependent echocardiography (Dahl salt-sensitive rats; every 2 weeks after HS diet, vs HS/saline, data not shown): significant reductions in isovolumic relaxation time
- miR-208a level in left and right ventricle (miR-208a; listed as Anti-miR-208a): dose-dependent inhibition
- miR-208a level in left and right ventricle (miR-208a; listed as anti-miR-208a): dose-dependent reduction of miR-208a
